From publication PMC4007584 (Journal of biomolecular screening, 2013)
Structures can show the parent of a compound that is named as a salt.

Tests used:
[1] = target: catalytic domain of PDE10A2 (Homo sapiens, UniProt Q9Y233); assay: PDE10A calorimetric activity assay; assay type: biochemical
PDE10A = details: literature; cited from earlier work
R6/2 mice = details: IP beginning at 4 weeks of age; cited from earlier work

Chain of catalytic domain of PDE10A2 (Q9Y233 715-1055 limits assumed): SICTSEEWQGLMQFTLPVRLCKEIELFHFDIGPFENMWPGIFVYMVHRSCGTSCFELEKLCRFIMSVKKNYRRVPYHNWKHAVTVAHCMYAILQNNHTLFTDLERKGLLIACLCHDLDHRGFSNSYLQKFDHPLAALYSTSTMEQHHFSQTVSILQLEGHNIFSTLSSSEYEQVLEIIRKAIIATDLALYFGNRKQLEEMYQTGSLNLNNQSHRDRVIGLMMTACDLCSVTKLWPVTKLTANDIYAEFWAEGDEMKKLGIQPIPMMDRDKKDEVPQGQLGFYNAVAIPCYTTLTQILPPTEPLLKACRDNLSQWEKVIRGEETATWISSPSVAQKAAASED

| Ligand Efficiency PDE10A ([1]; Table 1, from enthalpy array KI) [kcal mol^−1 HA^−1] | Structure (SMILES) | Ki [1] [µM] | inhibition mechanism, PDE10A [1] | IC50 (PDE10A) [µM] | reduction of the loss of striatal size (R6/2 mice) [%] |
| --- | --- | --- | --- | --- | --- |
|  | CC(=O)CCCCn1c(=O)c2c(ncn2C)n(C)c1=O [Pentoxifylline, pentoxifylline] | 200 ± 60 | competitive inhibition |  |  |
| 0.41 | CC(C)Cn1c(=O)n(C)c(=O)c2[nH]cnc21 [IBMX, 3-isobutyl-1-methylxanthine] | 17 ± 6.6 | competitive inhibition | 11 |  |
|  | COc1ccc(Cc2nccc3cc(OC)c(OC)cc23)cc1OC [Papaverine, papaverine hydrochloride] |  | competitive inhibition | 0.095 |  |
|  | FC(F)(F)Cn1cc(-c2ccncc2)c(-c2ccc(OCc3ccc4ccccc4n3)cc2)n1 [TP-10] |  |  |  | 50 |
